This assay addresses T1, human FXR (NR1H4) (Homo sapiens, UniProt Q96RI1).
T1 construct: host or cells: CHO (Chinese hamster ovary) cells
T1 sequence (Q96RI1 1-486): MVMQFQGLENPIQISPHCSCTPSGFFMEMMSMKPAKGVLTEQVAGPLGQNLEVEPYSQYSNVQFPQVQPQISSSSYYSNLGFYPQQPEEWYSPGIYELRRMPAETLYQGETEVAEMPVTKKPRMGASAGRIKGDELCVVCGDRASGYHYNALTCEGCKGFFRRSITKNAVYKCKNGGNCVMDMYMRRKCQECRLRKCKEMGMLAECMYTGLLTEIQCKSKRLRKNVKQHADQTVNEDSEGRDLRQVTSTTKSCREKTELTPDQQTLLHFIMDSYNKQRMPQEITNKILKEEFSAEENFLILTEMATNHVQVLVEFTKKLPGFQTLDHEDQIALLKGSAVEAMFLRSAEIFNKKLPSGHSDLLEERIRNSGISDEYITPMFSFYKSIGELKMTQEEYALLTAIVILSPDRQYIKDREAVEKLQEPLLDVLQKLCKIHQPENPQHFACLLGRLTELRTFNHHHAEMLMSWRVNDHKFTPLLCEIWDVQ
In words: Human FXR (NR1H4) reporter assay (Gal4 promoter driven transactivation, luciferase). Type of assay: cell-based. Conditions: for Efficacy (%): normalized to CDCA set as 100%. The text has this: Assays Human FXR (NR1H4) Assay Determination of a ligand mediated Gal4 promoter driven transactivation to quantify ligand binding mediated activation of FXR. FXR Reporter Assay kit purchased from Indigo Bioscience (Catalogue number: IB00601) to determine the potency and efficacy of compound developed by Enanta that can induce FXR activation. The principal application of this reporter assay system is to quantify functional activity of human FXR. The assay utilizes non-human mammalian cells, CHO (Chinese hamster ovary) cells engineered to express human NR1H4 protein (referred to as FXR). Reporter cells also incorporate the cDNA encoding beetle luciferase which catalyzes the substrates and yields photon emission. Luminescence intensity of the reaction is quantified using a plate-reading luminometer, Envision. Reporter Cells include the luciferase reporter gene functionally linked to an FXR responsive promoter. Thus, quantifying changes in luciferase expression in the treated reporter cells provides a sensitive surrogate measure of the changes in FXR activity. […] The assay is according to the manufacturer's instructions. In brief, the assay was performed in white, 96 well plates using final volume of 100 ul containing cells with different doses of compounds. Retrieve Reporter Cells from −80° C. storage. Perform a rapid thaw of the frozen cells by transferring a 10 ml volume of 37° C. cell recovery medium into the tube of frozen cells. Recap the tube of Reporter Cells and immediately place it in a 37° C. water bath for 5-10 minutes. Retrieve the tube of Reporter Cell Suspension from the water bath. Sanitize the outside surface of the tube with a 70% alcohol swab, and then transfer it into the cell culture hood. Dispense 90 μl of cell suspension into each well of the 96-well Assay Plate. Transfer the plate into 37° C. incubator, allowing the cells adherent to the bottom of the well. Dilute compounds in Dilution Plate (DP), and administrate to cells at Assay Plate (AP). DMSO content of the samples was kept at 0.2%. Cells were incubated for additional 22 hours before luciferase activities were measured. Thirty minutes before intending to quantify FXR activity, remove Detection Substrate and Detection Buffer from the refrigerator and place them in a low-light area so that they may equilibrate to room temperature. Remove the plate's lid and discard all media contents by ejecting it into an appropriate waste container. Gently tap the inverted plate onto a clean absorbent paper towel to remove residual droplets. Cells will remain tightly adhered to well bottoms. Add 100 μl of luciferase detection reagent to each well of the assay plate. Allow the assay plate to rest at room temperature for at least 5 minutes following the addition of LDR. Set the instrument (Envision) to perform a single 5 second “plate shake” prior to reading the first assay well. Read time may be 0.5 second (500 mSec) per well.

As a reminder, the EC50 is the midpoint of the concentration-response curve. For the compound `CC[C@H]1[C@@H](O)[C@@H]2[C@H](CC[C@]3(C)[C@@H]([C@H](C)CCCCCc4nn[nH]n4)CC[C@@H]23)[C@@]2(C)CC[C@@H](O)C[C@@H]12` [Example 5], the EC50 lay within 100 to 1000 nM and the “Efficacy (%)” value turned out to be 191%.
Take `CC[C@H]1[C@@H](O)[C@@H]2[C@H](CC[C@]3(C)[C@@H]([C@H](C)CCCc4nnn[nH]4)CC[C@@H]23)[C@@]2(C)CC[C@@H](O)C[C@@H]12` [Example 2]: the EC50 is 100 to 1000 nM and the “Efficacy (%)” value is on record as 354%.
On to `CC[C@H]1[C@@H](O)[C@@H]2[C@H](CC[C@]3(C)[C@@H]([C@H](C)CCCCc4nn[nH]n4)CC[C@@H]23)[C@@]2(C)CC[C@@H](O)C[C@@H]12` [Example 4], for which the concentration giving a half-maximal response (EC50) lay in the range of 100 to 1000 nM and the “Efficacy (%)” value turned out to be 234%.
The corresponding values for `CC[C@H]1[C@@H](O)[C@@H]2[C@H](CC[C@]3(C)[C@@H]([C@H](C)Cc4nnn[nH]4)CC[C@@H]23)[C@@]2(C)CC[C@@H](O)C[C@@H]12` [Example 3] are 1000 to 10000 nM and 192%.
Turning to `CC[C@H]1[C@@H](O)[C@@H]2[C@H](CC[C@]3(C)[C@@H]([C@H](C)CCC(=O)Nc4nnn[nH]4)CC[C@@H]23)[C@@]2(C)CC[C@@H](O)C[C@@H]12` [Example 6], the EC50 lay in the range of 1000 to 10000 nM and the “Efficacy (%)” value turned out to be 105%.
For `CC[C@H]1[C@@H](O)[C@@H]2[C@H](CC[C@]3(C)[C@@H]([C@H](C)CCc4nnn[nH]4)CC[C@@H]23)[C@@]2(C)CC[C@@H](O)C[C@@H]12` [Example 1] the same measures were 1000 to 10000 nM and 397%.
